# In US20110294803A1, “PHOSPHATIDYLINOSITOL-3-KINASE P110 DELTA-TARGETED DRUGS IN THE TREATMENT OF CNS DISORDERS” (priority 2008, published 2011):
# “Also recorded” adds a separate entry of the source.
# What was measured:
# C57BL/6J mice [1] = assay: Amphetamine-induced locomotor activity in open field, normal mice; assay type: in vivo, mouse; details: IC87114 0.1 mg/kg i.p. pretreatment; D-amphetamine 0.75 or 1.5 mg/kg i.p.; male C57BL/6J mice
# Experimental: (§1) Subjects. C57BL/6J mice were purchased from The Jackson Laboratory at 8 weeks old. All mice were group-housed (4/cage) in a climate-controlled animal facility (22±2° C.) and maintained on a 12-hr light/dark cycle, with free access to food and water. Testing was conducted in male mice, at ages 2-3 months, during the light phase of the circadian cycle. Mice were handled by the experimenter on alternate days during the week preceding the tests. At least one hour before any test manipulation, mice were habituated in a room adjacent to the testing room.
# On day 3, mice were tested in the same experimental apparatus and conditions as on day 1. […] During the first 10-minute session mice were placed in the same empty open field as day 1. Immediately after, mice were removed from the field and given an injection of D-amphetamine sulphate (either 0.75 mg/kg or 1.5 mg/kg, i.p., Sigma-Aldrich, St. Louis, Mo., USA). They were then placed back in the same open field and allowed to explore for an additional 75 minutes. Amphetamine was dissolved in physiological saline and injected in a volume of 10 ml/kg.
# Statistical analysis. Results were expressed as mean±standard error of the mean (S.E.M.) throughout. Student T-test, Two- or Three-Way analysis of variance (ANOVA) was used. Post-hoc analyses for individual group comparisons employed Newman-Keuls analyses.
# [2] = system: Human B-lymphoblast cells (LCLs); assay: NRG1-induced lymphocyte (LCL) migration, Transwell assay; assay type: cell-based; details: 0.1 uM, 60 min preincubation; LCLs of normal individuals and patients with schizophrenia; NRG-1 200 ng/ml, 4 hours
# Experimental: The cellular phenotype is migration of lymphocytes to the chemoattractant, Neuregulin (NRG1), a key regulator of brain development. NRG1 induced LCL migration is diminished in patients with schizophrenia.
# Human B-lymphoblast cells were cultured in RPMI 1640 without L-Glutamine medium (Quality Biological, Inc.) supplemented with 15% fetal bovine serum (FBS), 1% Penicillin-streptomycin, and 2% L-Glutamine in a 5% CO2 incubator at 37° C. Prior to performing migration assay, cells were incubated for 16-18 hours in the same culture, lowering the concentration of FBS to 2%. […] Following incubations, cells were seeded into the top chamber of the HTS […] Transwell®-96 Cell Migration plate (Corning) at 4×10^5 cell/well concentration in a 50 μl volume. NRG-1 serum free RPMI solution with antibiotics and L-Glutamine supplements (NRG-1 200 ng/ml; 160 μl) was added to the bottom chamber and incubated for 4 hours at 37° C. 75 μl of the bottom chamber fraction was collected and combined with 25 μl of cyquant/lysis buffer reagent (according to Invitrogen protocol) for 15 min at RT and in the dark, and then read with a Wallac 1420 VICTOR3 multilabel plate reader under standard fluorescein (485 nm/535 nm, 1.0 s) protocol.
# C57BL/6J mice [3] = assay: Baseline locomotor activity in open field; assay type: in vivo, mouse; details: IC87114 0.1 mg/kg i.p., male C57BL/6J mice, no amphetamine
# Experimental: as §1
# Mice were tested on day 1 in an experimental apparatus consisting of four Plexiglas Digiscan automated open fields (Accuscan; 42×42×30 cm dimensions). One red light (5±2 lux) was placed overhead, evenly illuminating each open field. Each apparatus contained photobeam sensors to measure the exploratory and locomotor activity of the mice. During the first 10-minute session, mice were placed in the empty open field and allowed to explore the arena. […] They were then place back in the same open field for an additional 75 minutes. All sessions were videotaped. […] “Vehicle-treated” mice were injected with the same volume of 0.25% DMSO in saline physiological saline.
# Statistical analysis. Results were expressed as mean±standard error of the mean (S.E.M.) throughout. Student T-test, Two- or Three-Way analysis of variance (ANOVA) was used. […]
# [4] = system: COMT*dysbindin double knockout mice; assay: Amphetamine-induced stereotypy in a genetic mouse model of schizophrenia; assay type: in vivo; details: IC87114 0.1 mg/kg i.p. pretreatment, D-amphetamine 1.5 mg/kg i.p.
# From the text: Subjects. All procedures were approved by the NIMH Animal Care and Use Committee and followed the NIH Guidelines “Using Animals in Intramural Research.” To derive the double knockout mice, the lines of COMT knockout mice and dysbindin knockout mice previously described were used. COMT*dysbindin double knockout mice (COMT−/− dys−/−) were littermates and bred by double heterozygote mating (dCOMT+/−dys+/− with cCOMT+/−dys+/−). Mice were identified by PCR analysis of tail DNA. Mice were group-housed (2-4/cage) in a climate-controlled animal facility (22±2° C.) and maintained on a 12-hr light/dark cycle, with free access to food and water. Testing was conducted in male mice, 7 months old, during the light phase. Experimenters were blind to the genotype during behavioral testing. Mice were handled by the experimenter on alternate days during the week preceding the tests. At least one hour before any test manipulation, mice were habituated in a room adjacent to the testing room.
# Stereotypy behavior with IC87114 and Amphetamine Treatment. […] Stereotypy was scored from videotapes by an observer blind to the treatments and genotype conditions of each mouse. […]
# Statistical analysis. Results were expressed as mean±standard error of the mean (S.E.M.) throughout. […]
# [5] = Passive blood-brain barrier permeability analysis by partitioning (Analiza); assay type: physicochemical
# Experimental: For compounds to be clinically useful to treat CNS disorders, they should penetrate the blood-brain barrier (BBB). […] The degree of BBB penetration is measured as the ratio of the steady-state concentrations of the drug in the brain and in the blood, expressed as log(Cbrain/Cblood) or log BB. Compounds with logBB>0.3 (i.e. Cbrain/Cblood>2.0) cross the BBB readily. From these studies, IC87114 represents one of these compounds.
# BBB analysis was performed using Analiza assays: Based upon a method described previously, a combination of two descriptors representing the lipophilicity (as measured by octanol-buffer partitioning, logD7.4) and relative hydrophobicity (as measured by aqueous two-phase partitioning (ATPPS), N(CH2)) of organic compounds was used to determine if that compound will permeate the blood-brain barrier.
# Sample Preparation: One sample was received as 10 mM stock solutions in Dimethyl sulfoxide (DMSO) frozen on dry ice in a microtube. […]
# Partitioning Experiments: Partitioning in an aqueous dextran-polyethylene glycol (Dex-PEG) two-phase system containing 0.15M NaCl in 0.01M sodium phosphate buffer at pH 7.4 was performed with an Automated Signature Workstation (Analiza, Inc. Cleveland, Ohio). […] Relative Hydrophobicity (N(CH2)) is then calculated from this partition coefficient. […] Relative Hydrophobicity (N(CH2) is then calculated from this partition coefficient. […]
# PIK3R3 mRNA = PIK3R3 mRNA expression in hippocampus of rats treated chronically with haloperidol; assay type: in vivo, rat; details: haloperidol 0.08 or 0.6 mg/kg/day i.p. once daily for 28 days
# Experimental: (§2) To explore this hypothesis, rats treated chronically with haloperidol, a standard antipsychotic drug, were tested for PIK3CD expression in the brain. Male Sprague-Dawley rats (weight 250 g) were on a 12-h light/dark cycle (lights on/off 0600 hours/1800 hours) in a temperature-controlled environment and with access to food and water. Rats were randomly assigned to drug treatment groups (8 per dose) and administered intraperitoneal injections of haloperidol (0.08 or 0.6 mg/kg/day) or vehicle (0.02% lactic acid) once daily for 28 days. Haloperidol (20 mg/ml) was prepared in 1% lactic acid, diluted with water, and neutralized with 1M NaOH to obtain pH 5.3. Rats were euthanized 7 h after the last injection. Brains were dissected and frozen at −80° C. PIK3CD, PIK3R3, ErbB4, and ErbB3 mRNA expression was determined in rat hippocampus using methods described above. Association of mRNA expression with haloperidol treatment was analyzed by ANOVA.
# ErbB4 mRNA = ErbB4 mRNA expression in hippocampus of rats treated chronically with haloperidol; assay type: in vivo, rat; details: haloperidol 0.08 or 0.6 mg/kg/day i.p. once daily for 28 days
# Experimental: as §2
# PIK3CD mRNA = PIK3CD mRNA expression in hippocampus of rats treated chronically with haloperidol; assay type: in vivo, rat; details: haloperidol 0.08 or 0.6 mg/kg/day i.p. once daily for 28 days, compared to untreated rats; F(2,22)=9.45, p=0.001
# Experimental: as §2
# ErbB3 mRNA = ErbB3 mRNA expression in hippocampus of rats treated chronically with haloperidol; assay type: in vivo, rat; details: haloperidol 0.08 or 0.6 mg/kg/day i.p. once daily for 28 days
# Experimental: as §2
Structure (SMILES),amphetamine-induced hyperlocomotion (distance traveled during 75 minutes) (C57BL/6J mice [1]),LCL migration in response to NRG-1 stimulation [2],baseline locomotor activity (distance traveled during 75 minutes) (C57BL/6J mice [3]),amphetamine-induced stereotypy [4],logBB (log(Cbrain/Cblood)) ([5]; calculated from partitioning data),"Kp ([5]; not told, calculated from log D (octanol-buffer, pH 7.4) and N(CH2) (aqueous two-phase partitioning), read-out: Cbrain/Cblood)",PIK3R3 mRNA expression in rat hippocampus (PIK3R3 mRNA),ErbB4 mRNA expression in rat hippocampus (ErbB4 mRNA),expression of PIK3CD mRNA in rat hippocampus (PIK3CD mRNA),ErbB3 mRNA expression in rat hippocampus (ErbB3 mRNA)
Cc1ccccc1-n1c(Cn2cnc3c(N)ncnc32)nc2cccc(C)c2c1=O [IC87114],reduces amphetamine-induced hyperlocomotion; also recorded: reduces amphetamine induced locomotor abnormalities; also recorded: blocked the amphetamine-induced increase in locomotor activity,Rescues a Cellular Phenotype Related to Schizophrenia; also recorded: significantly improve LCL migration,no effect on baseline locomotor activity; also recorded: without affecting baseline behavior; also recorded: did not show any drug-treatment effect,dramatically reduces amphetamine-induced stereotypy; also recorded: diminished,> 0.3,> 2,,,,
O=C(CCCN1CCC(O)(c2ccc(Cl)cc2)CC1)c1ccc(F)cc1 [haloperidol],,,,,,,did not affect,did not affect,decreases expression of PIK3CD mRNA,did not affect
